Experimental data as given in publication PMC11048033, “Dual Anti-Inflammatory and Anticancer Activity of Novel 1,5-Diaryl Pyrazole Derivatives: Molecular Modeling, Synthesis, In Vitro Activity, and Dynamics Study” (Biomedicines, 2024).

Legend:
[1] = target: BSA (bovine albumin serum) (Bos taurus, UniProt P02769); assay: Protein (albumin) denaturation assay; details: maximum inhibition; compounds tested at 50-200 µg/mL, diclofenac 100 µg/mL
Method: Mizushima and Kobayashi’s technique was employed for the determination of in vitro anti-inflammatory activity by the protein denaturation method for the synthesized compounds. […] Then, a mixture of 500µL of 1% aqueous solution of BSA (bovine albumin serum) and 1.4 mL of phosphate buffer saline (PBS, pH 7.4) was added to 100 µL of varying concentrations of the synthesized compounds 50, 100, and 200 µg/mL. […] The mixtures are then incubated for 15 min at 37 °C and then heated for 10 min at 60 °C. The absorbance was measured at 660nm (SHIMADZU, UV-1800 Spectrophotometer) upon cooling. […] The entire experiment was done in triplicate, and the average was calculated. % inhibition of protein denaturation was calculated by: % inhibition=Absorbance of Control−Absorbance of Sample/Absorbance of Control×100
The anti-inflammatory capacity of the target compound was evaluated using the protein denaturation assay.

human COX-1 = target: T1, human COX-1 (Homo sapiens, UniProt P23219); assay: In vitro COX-1 enzymatic assay (Cayman COX (human) Inhibitor Screening Assay Kit); assay type: biochemical; details: for COX-1 IC50: human COX-1
T1 construct: purchased Cayman chemicals 701230
T1 sequence (P23219 24-599): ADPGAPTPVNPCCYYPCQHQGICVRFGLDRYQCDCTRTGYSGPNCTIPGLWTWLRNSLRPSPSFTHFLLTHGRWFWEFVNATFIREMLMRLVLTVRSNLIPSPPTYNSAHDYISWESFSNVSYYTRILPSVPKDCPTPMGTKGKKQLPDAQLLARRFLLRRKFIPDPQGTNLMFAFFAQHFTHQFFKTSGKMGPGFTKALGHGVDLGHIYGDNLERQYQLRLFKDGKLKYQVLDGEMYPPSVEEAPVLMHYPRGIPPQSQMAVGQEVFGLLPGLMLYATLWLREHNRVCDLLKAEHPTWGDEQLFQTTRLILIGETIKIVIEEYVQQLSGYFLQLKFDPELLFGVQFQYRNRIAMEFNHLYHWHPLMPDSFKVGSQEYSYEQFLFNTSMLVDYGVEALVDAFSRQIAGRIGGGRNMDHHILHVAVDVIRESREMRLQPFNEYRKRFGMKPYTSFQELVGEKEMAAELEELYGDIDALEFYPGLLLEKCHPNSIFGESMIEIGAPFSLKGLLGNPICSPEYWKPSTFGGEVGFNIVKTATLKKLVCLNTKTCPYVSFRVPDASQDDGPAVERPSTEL
Method: The ability of the compounds to inhibit COX -2 (IC50 values, µM) was determined by using a “COX (human) Inhibitor Screening Assay Kit” procured from Cayman Chemicals (catalog number 701230). With a slight modification in the method as defined in the reference, the COX-2 inhibition assay was performed. Using the percent conversion of arachidonic acid (AA) to PGH2, the enzyme activity was calculated. By enzyme immunoassay PGF2α, which is produced from PGH2 by reduction with stannous chloride, is calculated. The test compounds’ stock solutions are prepared by dissolving in a minimum amount of DMSO. Human COX-2 (10 µL) in the presence of 10 µL of heme was suspended in 0.1M Tris-HCl buffer (pH 8.0) which contains 2 mM phenol and 5 mM EDTA. This was added to various concentrations of test compounds and, on incubating the solutions at 37 °C for 5 min, 10 µL of AA solution were added. Later, the COX reaction was stopped by adding 1M HCl (50 µL) after 2 min. The intensity of the yellow color which is produced as the product of the enzymatic reaction is determined spectrophotometrically. The percent inhibition was calculated by comparing the compound treated to different control incubations. Celecoxib is utilized as the standard for the assay. The determinations are done in triplicate and the IC50 (µM) was determined using the concentration–inhibition response curve.
During the initiation of the inflammatory process, the COX enzyme plays a vital role in the progression of inflammatory response. The inflammatory mediators that arise due to the action of COX lead to the chemoattraction of neutrophils, macrophages, eosinophils, etc. Due to the involvement of COX in inflammatory diseases, inhibitors of this enzyme can help in designing effective therapeutic agents. […] This was carried out with the help of a COX (human) inhibitor screening assay kit (Item no. 701230) from Cayman chemicals. […] A test substance concentration was considered to be inhibitive when it inhibited human COX-1 or COX-2 by 50%. The compound’s selectivity was measured by its selectivity index values, derived as IC50 (COX-1)/IC50 (COX-2).

[2] = system: HEPG2 (human liver) cell line; assay: MTT anticancer assay, HepG2; assay type: cell-based; details: for IC50 against HepG2: MTT
Method: The in vitro anticancer activity is determined by counting the viable cells that are stained with a vital dye. The MTT technique is an accurate measure of the activity of live cells using mitochondrial dehydrogenases. The target tumor cells A549 (human lung adenocarcinoma) and HEPG2 (human liver) cell lines are procured from the “National Centre for Cell Science” (NCCS, Pune). The sources of reagents like Trypsin, DMEM, Pen strip, and FBS are procured from Himedia. […] The culture medium was prepared, and the MTT assay was performed as per the general procedure described by Mosmann T. et al., [30] and the % viability of the cells was determined.
The target compounds tested for in vitro COX-2 were further checked for in vitro anti-cancer activity against A549 (lung cancer) and HepG2 (liver cancer) cell lines using MTT growth inhibition assay. The compounds were tested for cytotoxicity against both the cell lines at concentrations of 6.25, 12.5, 25, 50, and 100 µg/mL. […] Using the graph where % cell viability is plotted versus concentration, the IC50 values are determined with the help of the dose–response regression equation.

BSA (bovine albumin serum), sequence (P02769 25-607): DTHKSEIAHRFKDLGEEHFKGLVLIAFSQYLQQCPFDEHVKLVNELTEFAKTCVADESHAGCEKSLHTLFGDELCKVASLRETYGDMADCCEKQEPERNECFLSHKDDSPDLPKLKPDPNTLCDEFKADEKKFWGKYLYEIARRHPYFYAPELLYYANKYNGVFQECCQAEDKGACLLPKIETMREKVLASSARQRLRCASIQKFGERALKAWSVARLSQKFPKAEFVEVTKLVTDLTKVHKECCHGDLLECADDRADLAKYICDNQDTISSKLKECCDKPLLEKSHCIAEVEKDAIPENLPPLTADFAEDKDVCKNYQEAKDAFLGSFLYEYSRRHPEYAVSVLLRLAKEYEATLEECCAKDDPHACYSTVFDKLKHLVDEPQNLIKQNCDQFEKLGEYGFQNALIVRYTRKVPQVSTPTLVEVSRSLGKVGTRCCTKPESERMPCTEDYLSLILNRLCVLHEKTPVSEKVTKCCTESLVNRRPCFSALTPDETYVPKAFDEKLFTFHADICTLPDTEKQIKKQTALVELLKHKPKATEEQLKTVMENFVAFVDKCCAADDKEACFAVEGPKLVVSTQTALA

Row | SMILES | % inhibition of albumin denaturation [1] [%] | % COX-1 Inhibition (human COX-1; 0.781 μg/ml) [%] | % COX-1 Inhibition (human COX-1; 1.562 μg/ml) [%] | % COX-1 Inhibition (human COX-1; 3.125 μg/ml) [%] | % COX-1 Inhibition (human COX-1; 6.25 μg/ml) [%] | % COX-1 Inhibition (human COX-1; 12.5 μg/ml) [%] | % COX-1 Inhibition (human COX-1; 25 μg/ml) [%] | % COX-1 Inhibition (human COX-1; 50 μg/ml) [%] | % COX-1 Inhibition (human COX-1; 100 μg/ml) [%] | % COX-1 Inhibition (human COX-1; 250 μg/ml) [%] | COX-1 IC50 (human COX-1) [µM] | % cell viability ([2]; HepG2, 6.25 µg/ml) [%] | % cell viability ([2]; HepG2, 12.5 µg/ml) [%] | % cell viability ([2]; HepG2, 25 µg/ml) [%] | % cell viability ([2]; HepG2, 50 µg/ml) [%] | % cell viability ([2]; HepG2, 100 µg/ml) [%] | IC50 against HepG2 [2] [µM] | concentration at which compound was effective (from % inhibitory values) ([2]; HepG2 cell lines) [µg/mL]
1 | NS(=O)(=O)c1ccc(-n2nc(C(=O)NN=Cc3cccc(Oc4ccccc4)c3)cc2-c2ccc(Cl)cc2)cc1 [Compound T3, 4-(5-(4-chlorophenyl)-3-(2-(3-phenoxybenzylidene) hydrazine-1-carbonyl)-1H-pyrazol-1-yl) benzenesulfonamide] | 63.32 | 16.22 ± 0.61 | 24.62 ± 2.13 | 49.90 ± 2.32 | 61.14 ± 3.03 | 73.08 ± 1.76 | 77.09 ± 0.66 | 85.41 ± 0.12 | 87.94 ± 0.94 | 89.26 ± 0.71 | 4.655 | 84.39 | 84.40 | 73.65 | 73.62 | 54.76 | > 100 | 
2 | Cc1cc(C=NNC(=O)c2cc(-c3ccc(Br)cc3)n(-c3ccc(S(N)(=O)=O)cc3)n2)cc(C)c1OCc1ccccc1 [Compound T5, 4-(3-(2-(4-(benzyloxy)-3,5-dimethylbenzylidene) hydrazine-1-carbonyl)-5-(4-bromophenyl)-1H-pyrazol-1-yl) benzenesulfonamide] | 70.87 | 14.39 ± 2.17 | 21.90 ± 2.60 | 45.47 ± 1.94 | 57.14 ± 2.17 | 72.58 ± 3.09 | 76.66 ± 1.30 | 84.01 ± 1.77 | 88.49 ± 0.36 | 91.75 ± 2.76 | 5.596 | 84.40 | 73.66 | 73.42 | 54.76 | 39.32 | 66.93 | 50
